Measured values taken from patent publication US7253187B2, “Heterocyclic inhibitors of ERK2 and uses thereof” (Vertex Pharmaceuticals Incorporated, priority 2001, dated 2007).
pKi: −log10 of the molar value. Where two headings read alike, the source gives them in different places.

What was measured:
ERK2 = ERK2 (Homo sapiens, UniProt P28482); assay: ERK2 inhibition assay (spectrophotometric coupled-enzyme assay); type: biochemical
Protocol: The IC50 was evaluated from the rate data as a function of inhibitor concentration. […] The compound numbers correspond to the compound numbers in Table 1.

GSK-3β (AA 1–420) = target: T1, GSK-3β (AA 1–420) (Homo sapiens, UniProt P49841); assay: GSK-3 inhibition assay (coupled enzyme system); type: biochemical; settings: read-out: GSK3 Inhibitory Activity (Ki class)
T1 construct: GSK-3β (AA 1–420)
Protocol: Final substrate concentrations in the assay were 20 μM ATP (Sigma Chemicals, St Louis, Mo.) and 300 μM peptide (HSSPHQS(PO3H2)EDEEE, American Peptide, Sunnyvale, Calif.). Reactions were carried out at 30° C. and 20 nM GSK-3β. Final concentrations of the components of the coupled enzyme system were 2.5 mM phosphoenolpyruvate, 300 μM NADH, 30 μg/ml pyruvate kinase and 10 μg/ml lactate dehydrogenase.
An assay stock buffer solution was prepared containing all of the reagents listed above with the exception of ATP and the test compound of interest. The assay stock buffer'solution (175 μl) was incubated in a 96 well plate with 5 μl of the test compound of interest at final concentrations spanning 0.002 μM to 30 μM at 30° C. for 10 min. […] The reaction was initiated by the addition of 20 μl of ATP (final concentration 20 μM). Rates of reaction were obtained using a Molecular Devices Spectramax plate reader (Sunnyvale, Calif.) over 10 min at 30° C. The Ki values were determined from the rate data as a function of inhibitor concentration.
The compound numbers correspond to the compound numbers in Table 1.

[1] = read-out: ERK2 Inhibitory Activity (Ki class D-F)

Chain of ERK2 (P28482 whole entry): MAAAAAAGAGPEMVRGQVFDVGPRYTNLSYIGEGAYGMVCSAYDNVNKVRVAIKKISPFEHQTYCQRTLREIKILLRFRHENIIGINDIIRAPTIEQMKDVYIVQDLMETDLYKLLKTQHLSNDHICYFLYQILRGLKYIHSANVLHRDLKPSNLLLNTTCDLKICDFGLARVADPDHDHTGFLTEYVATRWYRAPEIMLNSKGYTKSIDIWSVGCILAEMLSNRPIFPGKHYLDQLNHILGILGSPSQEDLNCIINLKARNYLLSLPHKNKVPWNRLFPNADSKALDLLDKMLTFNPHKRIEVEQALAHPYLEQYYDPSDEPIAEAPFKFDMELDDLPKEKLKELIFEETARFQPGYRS
T1 sequence (P49841 whole entry, species assumed, the tested form may be a part): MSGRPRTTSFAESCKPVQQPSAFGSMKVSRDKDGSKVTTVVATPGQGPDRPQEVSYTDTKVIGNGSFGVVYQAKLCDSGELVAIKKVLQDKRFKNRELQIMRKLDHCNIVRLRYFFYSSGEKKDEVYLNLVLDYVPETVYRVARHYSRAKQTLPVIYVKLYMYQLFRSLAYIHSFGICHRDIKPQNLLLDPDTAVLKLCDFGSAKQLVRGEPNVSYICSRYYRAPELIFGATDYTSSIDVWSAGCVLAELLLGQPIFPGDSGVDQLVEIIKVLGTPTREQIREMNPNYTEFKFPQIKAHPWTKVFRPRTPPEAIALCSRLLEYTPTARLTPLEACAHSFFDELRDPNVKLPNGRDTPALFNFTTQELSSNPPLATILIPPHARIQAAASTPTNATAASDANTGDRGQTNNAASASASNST

SMILES | pKi (ERK2; [1]) | other results
O=C(NCc1ccc2c(c1)OCO2)c1cc(-c2nc(Nc3ccccc3)ncc2-c2cc(Cl)cc(Cl)c2)c[nH]1 [III-a-103, 4-[5-(3,5-Dichloro-phenyl)-2-phenylamino-pyrimidin-4-yl]-1H-pyrrole-2-carboxylic acid (benzo[1,3]dioxol-5-ylmethyl)-amide] | < 6.00 | 
Nc1ncc(-c2cc(F)cc(C(F)(F)F)c2)c(-c2c[nH]c(C(=O)NC(CO)c3ccccc3)c2)n1 (stereo not shown) [III-a-105, 4-[2-Amino-5-(3-fluoro-5-trifluoromethyl-phenyl)-pyrimidin-4-yl]-1H-pyrrole-2-carboxylic acid (2-hydroxy-1-phenyl-ethyl)-amide] | 6.00 to 7.00 | 
Cc1cnc(N)nc1-c1c[nH]c(C(=O)NCCc2cccnc2)c1 [III-a-107, 4-(2-Amino-5-methyl-pyrimidin-4-yl)-1H-pyrrole-2-carboxylic acid (2-pyridin-3′-yl-ethyl)-amide] | < 6.00 | 
CCCNC(=O)c1cc(-c2nc(Nc3ccccc3)ncc2C)c[nH]1 [III-a-111, 4-(5-Methyl-2-phenylamino-pyrimidin-4-yl)-1H-pyrrole-2-carboxylic acid propylamide] | > 7.00 | 
Cc1cnc(Nc2ccccc2)nc1-c1c[nH]c(C(=O)NCCCc2ccccc2)c1 [III-a-112, 4-(5-Methyl-2-phenylamino-pyrimidin-4-yl)-1H-pyrrole-2-carboxylic acid (3-phenyl-propyl)-amide] | > 7.00 | 
CCNc1ncc(C)c(-c2c[nH]c(C(=O)NC3CC3)c2)n1 [III-a-114, 4-(2-Ethylamino-5-methyl-pyrimidin-4-yl)-1H-pyrrole-2-carboxylic acid cyclopropylamide] | < 6.00 | 
Cc1cnc(Nc2ccccc2)nc1-c1c[nH]c(C(=O)NCCN)c1 [III-a-120, 4-(5-Methyl-2-phenylamino-pyrimidin-4-yl)-1H-pyrrole-2-carboxylic acid (2-amino-ethyl)-amide] | 6.00 to 7.00 | 
CCN(CC)CCNc1ncc(C)c(-c2c[nH]c(C(=O)NCc3ccc(F)c(F)c3)c2)n1 [III-a-132, 4-[2-(2-Diethylamino-ethylamino)-5-methyl-pyrimidin-4-yl]-1H-pyrrole-2-carboxylic acid 3i4-difluoro-benzylamide] | < 6.00 | 
Cc1cnc(Nc2nc(N3CCCCC3)nc3ccccc23)nc1-c1c[nH]c(C(=O)NCc2ccccc2)c1 [III-a-133, 4-[5-Methyl-2-(2-piperidin-1-yl-quinazolin-4-ylamino)-pyrimidin-4-yl]-1H-pyrrole-2-carboxylic acid benzylamide] |  | pKi (ERK2; ERK2 Inhibitory Activity (Ki class D-F)): < 6.00
COc1cccc(Nc2ncc(C)c(-c3c[nH]c(C(=O)NC(CO)c4ccccc4)c3)n2)c1 (stereo not shown) [III-a-137, 4-[2-(3-Methoxy-phenylamino)-5-methyl-pyrimidin-4-yl]-1H-pyrrole-2-carboxylic acid (2-hydroxy-1-phenyl-ethyl)-amide] |  | pKi (GSK-3β (AA 1–420)): > 7.00
COCc1cnc(Nc2ccccc2)nc1-c1c[nH]c(C(=O)NC(CO)c2ccccc2)c1 (stereo not shown) [III-a-160, 4-(5-Methoxymethyl-2-phenylamino-pyrimidin-4-yl)-1H-pyrrole-2-carboxylic acid (2-hydroxy-1-phenyl-ethyl)-amide] | 6.00 to 7.00 | 
COCc1cnc(N)nc1-c1c[nH]c(C(=O)N[C@H](CO)c2ccccc2)c1 [III-a-161, 4-(2-Amino-5-methoxymethyl-pyrimidin-4-yl)-1H-pyrrole-2-carboxylic acid (2-hydroxy-1-phenyl-ethyl)-amide] | 6.00 to 7.00 | 
CCCNc1ncc(C)c(-c2c[nH]c(C(=O)NC(CO)c3ccccc3)c2)n1 (stereo not shown) [III-a-163, 4-(5-Methyl-2-propylamino-pyrimidin-4-yl)-1H-pyrrole-2-carboxylic acid (2-hydroxy-1-phenyl-ethyl)-amide] | > 7.00 | 
Cc1cnc(NOCC2CC2)nc1-c1c[nH]c(C(=O)NC(CO)c2ccccc2)c1 (stereo not shown) [III-a-220, 4-(2-Cyclopropylmethoxyamino-5-methyl-pyrimidin-4-yl)-1H-pyrrole-2-carboxylic acid (2-hydroxy-1-phenyl-ethyl)-amide] | > 7.00 | 
Cc1cnc(NC(CO)CO)nc1-c1c[nH]c(C(=O)NC(CO)c2ccccc2)c1 (stereo not shown) [III-a-235, 4-[2-(2-Hydroxy-1-hydroxymethyl-ethylamino)-5-methyl-pyrimidin-4-yl]-1H-pyrrole-2-carboxylic acid (2-hydroxy-1-phenyl-ethyl)-amide] | > 7.00 | 
Cc1cnc(NC2CC2C)nc1-c1c[nH]c(C(=O)NC(CO)c2ccccc2)c1 (stereo not shown) [III-a-237, 4-[5-Methyl-2-(2-methyl-cyclopropylamino)-pyrimidin-4-yl]-1H-pyrrole-2-carboxylic acid (2-hydroxy-1-phenyl-ethyl)-amide] | > 7.00 | 

The next lines start with results.

pKi (ERK2; [1]) | SMILES | other results
< 6.00 | CCNc1ncc(C)c(-c2c[nH]c(C(=O)NC(C)C(O)c3ccccc3)c2)n1 (stereo not shown) [III-a-168, 4-(2-Ethylamino-5-methyl-pyrimidin-4-yl)-1H-pyrrole-2-carboxylic acid (2-hydroxy-1-methyl-2-phenyl-ethyl)-amide] | 
6.00 to 7.00 | CCNc1ncc(C)c(-c2c[nH]c(C(=O)NCC(O)c3ccccc3)c2)n1 (stereo not shown) [III-a-169, 4-(2-Ethylamino-5-methyl-pyrimidin-4-yl)-1H-pyrrole-2-carboxylic acid (2-hydroxy-2-phenyl-ethyl)-amide] | 
< 6.00 | CCNc1ncc(C)c(-c2c[nH]c(C(=O)NC(CO)C(O)c3ccccc3)c2)n1 (stereo not shown) [III-a-170, 4-(2-Ethylamino-5-methyl-pyrimidin-4-yl)-1H-pyrrole-2-carboxylic acid (2-hydroxy-1-hydroxymethyl-2-phenyl-ethyl)-amide] | 
< 6.00 | CCNc1ncc(C)c(-c2c[nH]c(C(=O)NC(CO)C(O)c3ccccc3)c2)n1 (stereo not shown) [III-a-171, 4-(2-Ethylamino-5-methyl-pyrimidin-4-yl)-1H-pyrrole-2-carboxylic acid (2-hydroxy-1-hydroxymethyl-2-phenyl-ethyl)-amide] | 
< 6.00 | CC(C(O)c1ccccc1)N(C)C(=O)c1cc(-c2ccnc(N)n2)c[nH]1 (stereo not shown) [III-a-180, 4-(2-Amino-pyrimidin-4-yl)-1H-pyrrole-2-carboxylic acid (2-hydroxy-1-methyl-2-phenyl-ethyl)-methyl-amide] | 
6.00 to 7.00 | CCNc1ncc(C)c(-c2c[nH]c(C(=O)NC(CO)c3ccccc3F)c2)n1 (stereo not shown) [III-a-192, 4-(2-Ethylamino-5-methyl-pyrimidin-4-yl)-1H-pyrrole-2-carboxylic acid [1-(2-fluoro-phenyl)-2-hydroxy-ethyl]-amide] | 
> 7.00 | CCONc1ncc(C)c(-c2c[nH]c(C(=O)N[C@H](CO)c3ccccc3)c2)n1 [III-a-195, 4-(2-Ethoxyamino-5-methyl-pyrimidin-4-yl)-1H-pyrrole-2-carboxylic acid (2-hydroxy-1-phenyl-ethyl)-amide] | 
< 6.00 | CCNc1ncc(C)c(-c2c[nH]c(C(=O)NC(C(C)=O)c3ccccc3)c2)n1 (stereo not shown) [III-a-197, 4-(2-Ethylamino-5-methyl-pyrimidin-4-yl)-1H-pyrrole-2-carboxylic acid (2-oxo-1-phenyl-propyl)-amide] | 
6.00 to 7.00 | CCOC(=O)NNc1ncc(C)c(-c2c[nH]c(C(=O)N[C@H](CO)c3ccccc3)c2)n1 [III-a-218, N′-{4-[5-(2-Hydroxy-1-phenyl-ethylcarbamoyl)-1H-pyrrol-3-yl]-5-methyl-pyrimidin-2-yl}-hydrazinecarboxylic acid ethyl ester] | 
> 7.00 | Cc1cnc(NCc2cccnc2)nc1-c1c[nH]c(C(=O)NC(CO)c2ccccc2)c1 (stereo not shown) [III-a-219, 4-{5-Methyl-2-[(pyridin-3-ylmethyl)-amino]-pyrimidin-4-yl}-1H-pyrrole-2-carboxylic acid (2-hydroxy-1-phenyl-ethyl)-amide] | 
> 7.00 | Cc1cnc(Nc2ccon2)nc1-c1c[nH]c(C(=O)NC(CO)c2ccccc2)c1 (stereo not shown) [III-a-221, 4-[2-(Isoxazol-3-ylamino)-5-methyl-pyrimidin-4-yl]-1H-pyrrole-2-carboxylic acid (2-hydroxy-1-phenyl-ethyl)-amide] | 
> 7.00 | Cc1cnc(NN(C)C)nc1-c1c[nH]c(C(=O)N[C@H](CO)c2ccccc2)c1 [III-a-226, 4-[2-(N′,N′-Dimethyl-hydrazino)-5-methyl-pyrimidin-4-yl]-1H-pyrrole-2-carboxylic acid (2-hydroxy-1-(S)-phenyl-ethyl)-amide] | 
6.00 to 7.00 | Cc1cc(Nc2ncc(C)c(-c3c[nH]c(C(=O)NC(CO)c4ccccc4)c3)n2)no1 (stereo not shown) [III-a-229, 4-[5-Methyl-2-(5-methyl-isoxazol-3-ylamino)-pyrimidin-4-yl]-1H-pyrrole-2-carboxylic acid (2-hydroxy-1-phenyl-ethyl)-amide] | 
> 7.00 | CCC(CO)Nc1ncc(C)c(-c2c[nH]c(C(=O)NC(CO)c3cccc(C)c3)c2)n1 (stereo not shown) [III-a-234, 4-[2-(1-Hydroxymethyl-propylamino)-5-methyl-pyrimidin-4-yl]-1H-pyrrole-2-carboxylic acid (2-hydroxy-1-m-tolyl-ethyl)-amide] | 
> 7.00 | CCC(CO)Nc1ncc(C)c(-c2c[nH]c(C(=O)NC(CO)c3ccccc3)c2)n1 (stereo not shown) [III-a-236, 4-[2-(1-Hydroxymethyl-propylamino)-5-methyl-pyrimidin-4-yl]-1H-pyrrole-2-carboxylic acid (2-hydroxy-1-phenyl-ethyl)-amide] | 
